Data on six compounds can be found in US20190388377A1, “COMPOSITIONS AND METHODS FOR THE TREATMENT OF LIVER DISEASES AND DISORDERS” (AXCELLA HEALTH INC., priority 2018, published 2019).

Experiment [1] concerns Albumin. Put plainly: Albumin secretion after 72 h by ELISA, PHH model, Example 2. It counts as cell-based, human. Particulars: FFA+TNFα. As to the method: (§1) PHH from two healthy human donors (Lonza, TRL) were seeded on day 0 at density of 6e04 cells in 96 well optical microplates (Thermofisher) in hepatocyte plating media (William's E medium, WEM) (Gibco) supplemented with 10% heat-inactivated FBS (Atlanta Bio), 2 mM Glutamax (Gibco), and 0.2% Primocin (InVivoGen) and incubated for 6 hours at 37° C., 5% CO2. After 6 hours, cells were washed twice and incubated overnight at 37° C., 5% CO2 with Hepatocytes defined medium (Corning) supplemented with 2 mM Glutamax (Gibco), and 1× Penicillin/Streptomycin. On day 1, cells were washed twice and incubated for 24 h in the hepatocyte culture media in the same conditions described above.
(§2) On day 2, cells were washed twice with DPBS 1× (Gibco) to remove excess amino acids and maintained in pretreatment media (1×HMDB, a defined custom amino acid concentration based on the mean physiological concentrations in blood, in WEM±supplemental amino acids): • a. Amino acid-free WEM (US Biologicals) supplemented with 11 mM Glucose (Sigma), 0.272 mM Sodium Pyruvate (Sigma), 1× P/S (Gibco) and containing 1×HMDB with no supplemental amino acids; or • b. The same media described above 1×HMDB WEM with supplemental amino acid and amino acid combination treatments at various concentrations. Cells were maintained in the defined media (a. & b.) for 24 hours at 37° C., 5% CO2. The HMDB values are published in the Human Metabolome Database (Wishart D S, Tzur D, Knox C, et al., HMDB: the Human Metabolome Database. Nucleic Acids Res. 2007 January; 35 (Database issue):D521-6. 17202168; which is hereby incorporated by reference in its entirety). Co-Treatment with Free Fatty Acids and Amino Acids Combination
(§3) After 24 h pre-treatment, cells maintained in the pretreatment media±supplemental amino acids (section (a. & b.) described above) were exposed to free fatty acids (FFA) at 250 uM with a ratio of 2:1 (Oleate:Palmitate) supplemented with TNF-α (Thermofisher) at 1 ng/ml. Cells were incubated with the FFAs mixture (FFAs+TNF-α)±supplemental amino acids treatments for 24 hours at 37° C., 5% CO2. After 24 hours incubation, media was removed for cytokine analysis and replaced by fresh media containing the same conditions described above (FFAs mixture±supplemental amino acids treatments). Cells were incubated for an additional 48 hours for a total of 72 hours of FFA and TNF-α stimulation. After 72 hours of incubation, media was removed for albumin and urea analysis and the cells were fixed for nuclei and lipid staining.
Albumin secretion was measured as a functionality test in primary human hepatocytes. Albumin was measured by ELISA (Human Albumin ELISA Quantitation set, Bethyl Laboratories) at 1/200 dilution in the sample diluent (Bethyl Laboratories). Data is reported as median fold change from control, statistical analysis was done using t-Test.
A general note: In an ELISA, binding on a coated surface is turned into a signal by an enzyme label.

In experiment [2] the test system is primary human hepatocytes. Put plainly: Intracellular lipid accumulation after 72 h by fluorescence microscopy, PHH model for NASH, Example 2. It counts as cell-based. Particulars: FFA+TNFα; for Lipid Median (median fold change from control): 72 h. As to the method:
as §1, §2, §3
After 72 hours, cells were washed twice in 100 ul PBS 1× (Gibco), fixed with 4% Paraformaldehyde, and washed twice with PBS 1× (100 ul). After fixation, lipids were stained with HCS LipidTOX Red Neutral (Thermofisher Scientific) diluted 1000× and nuclei were stained with Hoechst 3342 (Life Technologies) diluted to 4 ug/ml. The LipidTOX™ neutral lipid stain has an extremely high affinity for neutral lipid droplets that was detected by fluorescence microscopy using a high content imager (Molecular Devices). Data was normalized to the cell concentration determined by nuclei count. Images were analyzed and total lipid area was calculated using granularity module in MetaXpress 6 software. Data is reported as median fold change from control, statistical analysis was done using t-Test.

The subject of experiment [3] is Human CCL2 (MCP-1). Put plainly: MCP1 secretion by ELISA after 24 h, PHH model for NASH, Example 2. It counts as cell-based. Particulars: FFA+TNFα. As to the method:
as §1, §2, §3
Human CCL2 (MCP-1) was measured by ELISA (Human […] DuoSet ELISA, R&D Systems) at 1/20 dilution in 1× Reagent Diluent (Reagent Ancillary Kit 2, R&D Systems). MCP1 data in primary human hepatocytes treated with FFA+TNFα+supplemental amino acids was normalized to 1×HMDB WEM+FFA+TNFα baseline. Data is reported as median fold change from control, statistical analysis was done using t-Test.

Experiment [4] relates to Urea. Put plainly: Urea production after 72 h by urea nitrogen (BUN) colorimetric assay, PHH model, Example 2. It is filed as cell-based, human. Particulars: FFA+TNFα. On the procedure: as §1, §2, §3
Urea was measured as an indicator of hepatocytes functionality by urea nitrogen direct assay (StanBio). Cell supernatant was added to the BUN color reagent and BUN acid reagent at 1(color):2(acid) ratio. Incubate the cell supernatant with BUN reagent for 12 min at 100° C. then for 5 min at 4° C. Read absorbance at 520 nm. Data was normalized to the control. Data is reported as median fold change from control, statistical analysis was done using t-Test.

Experiment [5] has as its system Procollagen III. Put plainly: Procollagen III secretion by ELISA, TGFβ1-stimulated hepatic stellate cells, Example 4. As to conditions: HSC, three donors. It counts as cell-based, human. As to the method: Primary human hepatic stellate cells were obtained from Samsara Sciences. Cells from three different donors were grown in Complete HSC Medium to ˜80% confluence in T75 or T150 flasks below passage 10 were seeded into sterile, collagen I coated, 96-well optical plastic microplates (ThermoScientific) and incubated overnight at 37° C., 5% CO2 in a humidified incubator in DMEM with 2% Fetal Bovine Serum and 1% Antimycotic. […] After 24 hours of stimulus, supernatant was removed and used to measure Procollagen III and cells were then washed and fixed with 4% paraformaldehyde for further staining. Procollagen III, an important biomarker of fibrosis was measured by ELISA (Human PCIII Elisa Kit, G-Biosciences) following the manufacturer's recommendations. Fixed cells with 4% paraformaldehyde were permeabilized with 0.1% Triton X-100 then immunostained for alpha SMA and labeled for EdU incorporation.

Experiment [6] has as its system primary human hepatocytes. Put plainly: Intracellular triglyceride level after 72 h, colorimetric assay, Example 3. It is filed as cell-based. As to the method: On day 2, cells were washed twice with DPBS 1× (Gibco) and maintained in: • a. Amino acid-free WEM (US Biologicals) supplemented with 11 mM Glucose (Sigma), 0.272 mM Sodium Pyruvate (Sigma), 1× P/S (Gibco) and containing a defined custom amino acid concentration based on the mean physiological concentrations in blood (1× HMDB WEM (−) supplemental amino acids); or • b. The same media described above 1×HMDB WEM (+) supplemental amino acids treatment dose at a 30× of HMDB amino acid concentration. Cells were maintained in the defined amino acids media (a. & b.) for 24 hours at 37° C., 5% CO2. Co-Treatment with Free Fatty Acids and Various Amino Acids Supplemental Treatments
After 24 h pre-treatment, cells maintained in the same media (a. & b.) described above 1×HMDB±supplemental amino acids were now exposed to free fatty acids (FFA) at 250 uM with a ratio of 2:1 (Oleate:Palmitate) supplemented with TNF-α (Thermofisher) at 1 ng/ml or vehicle. Cells with the FFAs+TNFα mixture±amino acids treatments were incubated for 72 hours at 37° C., 5% CO2 with a media change after the first 24 hours.
After 72 hours, cells were washed once with cold PBS 1× (Gibco), scrapped off and collected into 75 ul of standard diluent (Cayman). Collected cells were vortexed for 1 min at a 2500 rpm speed followed by two times sonication (Elmasonic sonicator) for 1 min each. Supernatants were collected for triglyceride analysis after centrifugation at 1000 rpm for 10 min at 4° C. Intracellular triglyceride level was assessed using triglyceride colorimetric assay kit (Cayman) and following manufacturer's recommendations. Data was normalized to the total amount of protein using Bicinchoninic Acid Protein Assay Kit (Sigma). Data is reported as median fold change from FFAs+TNFα condition, statistical analysis was done using t-Test.

In experiment [7] the test system is alpha smooth muscle actin (αSMA). Put plainly: HSC activation by alpha SMA immunostaining, TGFβ1-stimulated hepatic stellate cells. It is filed as cell-based, human. As to the method: Primary human hepatic stellate cells were obtained from Samsara Sciences. Cells from three different donors were grown in Complete HSC Medium to ˜80% confluence in T75 or T150 flasks below passage 10 were seeded into sterile, collagen I coated, 96-well optical plastic microplates (ThermoScientific) and incubated overnight at 37° C., 5% CO2 in a humidified incubator in DMEM with 2% Fetal Bovine Serum and 1% Antimycotic. […] After 24 hours of stimulus, supernatant was removed and used to measure Procollagen III and cells were then washed and fixed with 4% paraformaldehyde for further staining.
Procollagen III, an important biomarker of fibrosis was measured by ELISA (Human PCIII Elisa Kit, G-Biosciences) following the manufacturer's recommendations. Fixed cells with 4% paraformaldehyde were permeabilized with 0.1% Triton X-100 then immunostained for alpha SMA and labeled for EdU incorporation.
Cells were imaged using ImageXpress micro confocal high content imager (Molecular Devices). […] Image analysis was performed using MetaXpress version 6.2.3.733 (Molecular Devices).
Fixed cells immunostained for alpha smooth muscle actin (αSMA) were analyzed and stained area was normalized to total nuclei count. Fold change were calculated relative to the baseline amino acid (1×HMDB) condition stimulated with 3 ng/mL TGFβ1.

Structures are written as SMILES.

On to `N[C@@H](CO)C(=O)O` [S, L-serine], for which the “albumin secretion (in words)” value in experiment [1] (hepatocyte donor 1) is on record as “decreased albumin production at a higher level than the previously described amino acids”; in experiment [1] (hepatocyte donor 2), “reduced albumin secretion”. The “Lipid Median (median fold change from control)” value in experiment [2] (donor 1, AA Conc. 25X) is −0.178; in experiment [2] (donor 2, AA Conc. 30X), −0.42. For the same compound, the figures for the “lipid accumulation (in words)” value in experiment [2] (hepatocyte donor 1) and in experiment [2] (hepatocyte donor 2) were “reduced lipid accumulation” and “reduced lipid accumulation but less than the previously described combinations”, respectively. In addition, the “MCP1 secretion (in words)” value is reported as “did not reduce MCP1 secretion” in experiment [3] (hepatocyte donor 1) and “did not affect MCP1 secretion” in experiment [3] (hepatocyte donor 2). Moreover, the results for the “urea production (in words)” value in experiment [4] (hepatocyte donor 1) and in experiment [4] (hepatocyte donor 2) were “No changes in urea production” and “slightly induce urea production”, respectively. Besides, in experiment [5], the “procollagen III secretion (in words)” value is given as “had no impact on procollagen III secretion”. Further, the “Triglyceride Level relative to the baseline FFA + TNF, Median” value in experiment [6] (FFA + TNF, 72 h, two donors, AA Conc 1X, Nac/Car 0 mM) is given as −0.176. Further, the “triglyceride level (in words)” value in experiment [6] (FFAs+TNFα, two healthy donors) is recorded as “didn't have an impact on triglycerides”.

Consider `CC(C)[C@H](N)C(=O)O` [V, L-Valine], for which the “albumin secretion (in words)” value in experiment [1] (hepatocyte donor 1) is on record as “decreased albumin production at a higher level than the previously described amino acids”. In addition, the “Lipid Median (median fold change from control)” value in experiment [2] (donor 1, AA Conc. 20X) is given as −0.685. Moreover, in experiment [2] (hepatocyte donor 1), the “lipid accumulation (in words)” value was “reduced lipid accumulation”. Besides, the “MCP1 secretion (in words)” value in experiment [3] (hepatocyte donor 1) was “did not reduce MCP1 secretion”. Besides, in experiment [5], the “procollagen III secretion (in words)” value is “had no impact on procollagen III secretion”.

Regarding `CC(C)C[C@H](N)C(=O)O` [L, L-leucine], the “albumin secretion (in words)” value in experiment [1] (hepatocyte donor 1) is reported as “decreased albumin production at a higher level than the previously described amino acids”. Besides, the “Lipid Median (median fold change from control)” value in experiment [2] (donor 1, AA Conc. 20X) is reported as −0.725. Besides, in experiment [2] (hepatocyte donor 1), the “lipid accumulation (in words)” value is “reduced lipid accumulation”. For the same compound, the “MCP1 secretion (in words)” value in experiment [3] (hepatocyte donor 1) is on record as “did not reduce MCP1 secretion”. In experiment [4] (hepatocyte donor 1), the “urea production (in words)” value is recorded as “No changes in urea production”. The “procollagen III secretion (in words)” value in experiment [5] is on record as “had no impact on procollagen III secretion”.

Consider `NC(=O)CC[C@H](N)C(=O)O` [Q, L-glutamine], for which the “albumin secretion (in words)” value in experiment [1] (hepatocyte donor 1) is recorded as “decreased albumin production at a higher level than the previously described amino acids”. Moreover, the “Lipid Median (median fold change from control)” value in experiment [2] (donor 1, AA Conc. 20X) was −0.588. The “lipid accumulation (in words)” value in experiment [2] (hepatocyte donor 1) is “reduced lipid accumulation”. Moreover, the “MCP1 secretion (in words)” value in experiment [3] (hepatocyte donor 1) is reported as “did not reduce MCP1 secretion”. Further, in experiment [4] (hepatocyte donor 1), the “urea production (in words)” value is given as “No changes in urea production”. For the same compound, the “procollagen III secretion (in words)” value in experiment [5] is “decreased procollagen III secretion but at a lower extent than LIRNacCar and LIRQNacSCar”.

Turning to `N=C(N)NCCC[C@H](N)C(=O)O` [R, L-arginine], the “albumin secretion (in words)” value in experiment [1] (hepatocyte donor 1) is on record as “did not reduce albumin secretion”. Besides, in experiment [7], the “alpha SMA stained area (in words)” value is given as “reduced the alpha SMA stained area”. In addition, the “lipid accumulation (in words)” value in experiment [2] (hepatocyte donor 1) was “did not reduce lipid accumulation”. The “MCP1 secretion (in words)” value in experiment [3] (hepatocyte donor 1) is “did not reduce MCP1 secretion”. Besides, the “urea production (in words)” value in experiment [4] (hepatocyte donor 1) is reported as “induced urea production”. In addition, the “procollagen III secretion (in words)” value in experiment [5] was “had no impact on procollagen III secretion”.

On to `CC[C@H](C)[C@H](N)C(=O)O` [I, L-isoleucine], for which, in experiment [1] (hepatocyte donor 1), the “albumin secretion (in words)” value is listed as “did not reduce albumin secretion”. In addition, in experiment [2] (donor 1, AA Conc. 20X), the “Lipid Median (median fold change from control)” value is on record as −0.105. In experiment [2] (hepatocyte donor 1), the “lipid accumulation (in words)” value is “reduced lipid accumulation”. Moreover, the “MCP1 secretion (in words)” value in experiment [3] (hepatocyte donor 1) is listed as “did not reduce MCP1 secretion”. The “urea production (in words)” value in experiment [4] (hepatocyte donor 1) was “No changes in urea production”. In experiment [5], the “procollagen III secretion (in words)” value was “had no impact on procollagen III secretion”.
